{
  "source": "patent US20180194967A1",
  "about": "“ANTIMICROBIAL PEPTIDE AMPHIPHILE COATINGS” (priority 2017, published 2018)",
  "assay": "Coating thickness by optical profilometry",
  "format": "physicochemical",
  "conditions": "submersion coating on PVC-coated glass slide",
  "protocol": "For surface topology studies, PVC powder was purchased and dissolved in 3:2 cyclopentanone:tetrahydrofuran at a concentration of 10 mg/mL. PVC solution (50 μL) was used to spin-coat 1 cm diameter glass slides for 1 minute at 3,000 RPM. The PVC-coated slides were allowed to dry for 24 hours prior to submersion coating in 2 mL AMPA solutions. Coated products were removed from submersion and dried in 24-well plates under aseptic conditions for at least 24 hours prior to characterization. The coating was assessed via contact angle to evaluate surface hydrophilicity and optical profilometry to measure coating thickness. […] Electron microscopy of the AMPA coatings has shown no presence of micelles.",
  "note": "Where a SMILES comes first, the peptide text is derived from it. Bridges are numbered along the chain shown (N, C = ends). [ ]: non-standard residue; d: D form. The star is where a group is joined. d2Nal = N[C@H](Cc1ccc2ccccc2c1)C(=O)O; Palmitoyl = CCCCCCCCCCCCCCCC(=O)*",
  "data": [
    {"smiles": "CCCCCCCCCCCCCCCC(=O)NCCCC[C@H](NC(=O)[C@H]1CCCN1C(=O)[C@H](NC(=O)[C@@H]1CCCCNC(=O)C[C@H](NC(=O)[C@@H](NC(=O)[C@H](CCCNC(=N)N)NC(=O)[C@@H](NC(=O)[C@H](CCCNC(=N)N)NC(=O)[C@@H](NC(=O)[C@H](CCCNC(=N)N)NC(=O)[C@@H](N)Cc2ccccc2)[C@@H](C)CC)C(C)C)C(C)C)C(=O)N[C@@H](CCCNC(=N)N)C(=O)N[C@@H](CCCNC(=N)N)C(=O)N[C@H](Cc2ccc3ccccc3c2)C(=O)N[C@@H](Cc2ccccc2)C(=O)N[C@@H](Cc2c[nH]c3ccccc23)C(=O)N[C@@H](CCCNC(=N)N)C(=O)N1)C(C)C)C(N)=O", "note": "[AB01-KPalm, FRIRVRV[DRR-dNal(2′)-FWRK]dV-Dp [SEQ. ID. NO. 1]-K(Palm)] (H-FRIRVRVDRR[d2Nal]FWRK[dV][dP]K(Palmitoyl)-NH2; lactam 8-15; N-terminus and C-terminus assumed)", "values": [
      {"measurement": "coating thickness", "value": "approximately 30 nm"}
    ]}
  ]
}
